Values quoted from earlier work as cited in patent US11304902B2, “Pharmaceutical compositions, preparation and uses thereof” (CURADIGM SAS, priority 2014, dated 2022).
“Also recorded” adds a separate entry of the source.

Columns and labels:
Conditions in all cases: human CYP enzyme
CYP4F2 = target: T1, CYP4F2 (Homo sapiens, UniProt P78329)
T1 sequence (P78329 5-520): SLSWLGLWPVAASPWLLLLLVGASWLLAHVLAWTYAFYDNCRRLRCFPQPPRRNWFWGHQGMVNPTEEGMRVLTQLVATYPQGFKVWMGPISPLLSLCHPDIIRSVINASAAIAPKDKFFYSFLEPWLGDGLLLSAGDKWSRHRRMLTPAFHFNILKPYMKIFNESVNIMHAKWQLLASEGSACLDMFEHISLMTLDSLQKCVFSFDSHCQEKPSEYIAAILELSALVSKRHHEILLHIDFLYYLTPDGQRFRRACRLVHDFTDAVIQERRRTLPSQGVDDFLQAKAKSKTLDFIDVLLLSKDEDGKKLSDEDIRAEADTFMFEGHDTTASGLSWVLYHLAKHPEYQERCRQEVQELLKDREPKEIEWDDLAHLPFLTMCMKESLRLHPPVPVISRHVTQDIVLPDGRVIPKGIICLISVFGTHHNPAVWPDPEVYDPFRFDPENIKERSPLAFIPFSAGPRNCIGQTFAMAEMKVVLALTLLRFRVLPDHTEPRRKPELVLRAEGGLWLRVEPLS

CYP2D6 = CYP2D6 (Homo sapiens, UniProt P10635)
Sequence of CYP2D6 (P10635 whole entry): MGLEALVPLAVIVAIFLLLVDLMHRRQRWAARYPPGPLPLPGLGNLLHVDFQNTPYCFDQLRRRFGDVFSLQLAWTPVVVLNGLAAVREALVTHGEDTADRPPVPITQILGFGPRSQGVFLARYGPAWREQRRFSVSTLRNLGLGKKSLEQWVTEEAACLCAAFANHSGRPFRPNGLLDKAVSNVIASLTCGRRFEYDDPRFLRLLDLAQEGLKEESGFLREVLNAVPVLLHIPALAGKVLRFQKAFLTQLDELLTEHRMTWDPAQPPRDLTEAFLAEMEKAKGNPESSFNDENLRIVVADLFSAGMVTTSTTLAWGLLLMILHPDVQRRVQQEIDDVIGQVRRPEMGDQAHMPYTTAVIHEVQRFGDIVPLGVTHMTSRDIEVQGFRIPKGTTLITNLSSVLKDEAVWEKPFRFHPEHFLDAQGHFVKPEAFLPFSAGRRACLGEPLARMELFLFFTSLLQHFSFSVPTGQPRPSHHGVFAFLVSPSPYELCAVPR

CYP3A4 = CYP3A4 (Homo sapiens, UniProt P08684)
Sequence of CYP3A4 (P08684 whole entry): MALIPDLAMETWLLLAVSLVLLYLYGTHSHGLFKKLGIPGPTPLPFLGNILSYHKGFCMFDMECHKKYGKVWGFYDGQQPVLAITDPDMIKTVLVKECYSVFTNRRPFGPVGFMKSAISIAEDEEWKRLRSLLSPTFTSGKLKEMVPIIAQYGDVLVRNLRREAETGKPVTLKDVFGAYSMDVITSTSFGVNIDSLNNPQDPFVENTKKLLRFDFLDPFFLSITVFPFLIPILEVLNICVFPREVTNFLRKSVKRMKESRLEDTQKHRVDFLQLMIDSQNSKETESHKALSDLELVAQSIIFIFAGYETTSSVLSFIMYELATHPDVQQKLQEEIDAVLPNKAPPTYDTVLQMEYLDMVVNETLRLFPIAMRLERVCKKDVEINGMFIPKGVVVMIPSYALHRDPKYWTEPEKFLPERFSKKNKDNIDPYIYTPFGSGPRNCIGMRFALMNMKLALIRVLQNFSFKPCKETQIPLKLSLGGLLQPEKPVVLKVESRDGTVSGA

CYP2C9 = CYP2C9 (Homo sapiens, UniProt P11712)
Sequence of CYP2C9 (P11712 whole entry): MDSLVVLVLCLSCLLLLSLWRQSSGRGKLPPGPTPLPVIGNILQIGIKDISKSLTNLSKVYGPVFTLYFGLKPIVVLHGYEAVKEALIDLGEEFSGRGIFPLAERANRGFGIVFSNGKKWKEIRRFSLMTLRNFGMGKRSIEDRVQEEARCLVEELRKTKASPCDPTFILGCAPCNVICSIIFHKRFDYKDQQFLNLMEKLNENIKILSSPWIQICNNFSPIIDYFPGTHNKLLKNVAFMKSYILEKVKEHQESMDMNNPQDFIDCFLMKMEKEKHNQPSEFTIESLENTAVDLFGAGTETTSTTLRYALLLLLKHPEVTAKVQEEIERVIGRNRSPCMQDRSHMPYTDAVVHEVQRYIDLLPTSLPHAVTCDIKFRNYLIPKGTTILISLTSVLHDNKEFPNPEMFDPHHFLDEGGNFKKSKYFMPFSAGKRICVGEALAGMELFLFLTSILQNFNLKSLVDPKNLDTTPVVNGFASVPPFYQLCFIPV

CYP4F8 = target: T2, CYP4F8 (Homo sapiens, UniProt P98187)
T2 sequence (P98187 1-520): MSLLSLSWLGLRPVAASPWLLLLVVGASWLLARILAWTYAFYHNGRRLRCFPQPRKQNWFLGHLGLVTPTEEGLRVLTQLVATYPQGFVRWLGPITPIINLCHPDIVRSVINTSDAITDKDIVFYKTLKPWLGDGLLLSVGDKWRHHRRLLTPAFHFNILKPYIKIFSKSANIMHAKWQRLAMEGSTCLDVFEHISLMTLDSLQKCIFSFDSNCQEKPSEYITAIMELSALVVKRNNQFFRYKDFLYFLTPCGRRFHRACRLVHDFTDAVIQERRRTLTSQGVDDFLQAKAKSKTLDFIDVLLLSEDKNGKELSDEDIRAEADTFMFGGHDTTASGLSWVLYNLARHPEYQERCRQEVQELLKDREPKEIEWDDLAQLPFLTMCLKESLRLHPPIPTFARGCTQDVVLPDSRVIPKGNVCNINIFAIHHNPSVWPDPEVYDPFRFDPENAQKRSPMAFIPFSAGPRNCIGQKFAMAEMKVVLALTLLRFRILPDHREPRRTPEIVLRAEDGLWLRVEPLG

CYP2C8 = target: T3, CYP2C8 (Homo sapiens, UniProt P10632)
T3 sequence (P10632 1-490): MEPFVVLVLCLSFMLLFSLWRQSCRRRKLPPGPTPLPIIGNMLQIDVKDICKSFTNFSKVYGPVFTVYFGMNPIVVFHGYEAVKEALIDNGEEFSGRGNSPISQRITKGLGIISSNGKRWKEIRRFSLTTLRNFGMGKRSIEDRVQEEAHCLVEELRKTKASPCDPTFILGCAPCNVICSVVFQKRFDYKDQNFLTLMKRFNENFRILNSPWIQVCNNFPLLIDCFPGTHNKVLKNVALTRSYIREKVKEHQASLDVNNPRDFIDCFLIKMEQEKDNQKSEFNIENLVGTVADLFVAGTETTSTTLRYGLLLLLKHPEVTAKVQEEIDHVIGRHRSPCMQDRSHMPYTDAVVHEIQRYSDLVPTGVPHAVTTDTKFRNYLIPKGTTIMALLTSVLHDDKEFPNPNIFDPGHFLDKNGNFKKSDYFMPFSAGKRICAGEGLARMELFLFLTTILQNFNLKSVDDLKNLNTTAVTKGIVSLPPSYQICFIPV

CYP1A1 = target: T4, CYP1A1 (Homo sapiens, UniProt P04798)
T4 sequence (P04798 1-512): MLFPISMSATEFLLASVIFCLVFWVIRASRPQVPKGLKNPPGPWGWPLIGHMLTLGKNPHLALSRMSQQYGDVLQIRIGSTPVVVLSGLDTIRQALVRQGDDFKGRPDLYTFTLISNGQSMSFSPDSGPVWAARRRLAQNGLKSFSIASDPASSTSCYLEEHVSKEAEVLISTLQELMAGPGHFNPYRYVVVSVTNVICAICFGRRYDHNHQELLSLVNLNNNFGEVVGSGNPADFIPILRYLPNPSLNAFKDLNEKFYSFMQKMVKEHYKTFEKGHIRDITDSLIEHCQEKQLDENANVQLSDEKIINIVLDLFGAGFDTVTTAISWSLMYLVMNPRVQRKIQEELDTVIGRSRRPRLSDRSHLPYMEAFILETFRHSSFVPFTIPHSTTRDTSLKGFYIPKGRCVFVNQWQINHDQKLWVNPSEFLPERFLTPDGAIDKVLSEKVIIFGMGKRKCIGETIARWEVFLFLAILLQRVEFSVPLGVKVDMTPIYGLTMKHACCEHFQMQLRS

Q: What does the source list for `CCCCC/C=C\C/C=C\C/C=C\C/C=C\CCCC(=O)O` [Arachidonic acid, arachidonic acid]?
A: role towards CYP4F2 (substrate / inhibitor / inducer) (CYP4F2): Substrate; role towards CYP2D6 (substrate / inhibitor / inducer) (CYP2D6): Inhibitor; role towards CYP3A4 (substrate / inhibitor / inducer) (CYP3A4): Inhibitor; also recorded: Substrate; role towards CYP2C9 (substrate / inhibitor / inducer) (CYP2C9): Inhibitor; also recorded: Substrate; role towards CYP4F8 (substrate / inhibitor / inducer) (CYP4F8): Substrate; role towards CYP2C8 (substrate / inhibitor / inducer) (CYP2C8): Substrate; role towards CYP1A1 (substrate / inhibitor / inducer) (CYP1A1): Inhibitor
